One experiment deals with human NLRP1 inflammasome. The experiment is described as follows: HRV14-3Cpro-induced ASC-GFP speck formation in 293T-ASC-GFP-NLRP1-FLAG reporter cells. The settings on record: 293T-ASC-GFP-NLRP1-FLAG cells transfected with HRV14-3Cpro; MLN4924 1 μM, MG132 2.5 μM, Bortezomib 0.5 μM, phenylalanine 1 mM; 24 hours. It is filed as cell-based.
In another experiment the test system is NLRP1. Nature of the experiment: NLRP1 self-oligomerization (BN-PAGE) and cleavage fragment (SDS-PAGE/Western blot) in 293T-NLRP1-FLAG cells transfected with HRV14-3Cpro. It is filed as cell-based, human. The conditions noted are these: for stabilization of the post-cleavage NLRP1 fragment (a.a. 131-1213): 293T-NLRP1-FLAG cells transfected with HRV14-3Cpro, Western blot; for HRV14-3Cpro-induced NLRP1 self-oligomerization: 293T-NLRP1-FLAG cells, BN-PAGE, drugs for 24 hours, MG132 2.5 μM. In general terms: A western blot detects proteins with antibodies after separation by electrophoresis.

Experiment [1] concerns endogenous NLRP1 inflammasome. Nature of the experiment: Endogenous NLRP1 inflammasome in doxycycline-induced Tet-ON HRV14-3Cpro N/TERT keratinocytes. Format: cell-based, human. The conditions noted are these: doxycycline 24 hours; for mature IL-1β secretion upon HRV14-3Cpro induction: Western blot, ELISA.
Experiment [2] concerns NLRP1 inflammasome in HRV16-infected NHBEs. The experiment is described as follows: HRV16-induced IL-1β and IL-18 secretion in NHBEs (ELISA). Format: cell-based, human. The conditions noted are these: HRV16 MOI=5, 33° C., 48 hours, pre-treated: MLN4924 1 μM, Bortezomib 1 μM, MCC950 5 μM, Rupintrivir 10 nM. On the procedure:
(§1) (A) Expression levels of NLRP1 vs. NLRP3 (RNAseq FKPM) in NHBEs. n=21, independent cultures of pooled NHBEs from healthy donors. (B) Expression of NLRP1 vs. NLRP3 in healthy human nasal biopsy. Puncta: positive staining by RNAscope. Nuclei staining: hematoxylin. (C) Overview of cytokine profiling of by HRV16-infected and Talabostat-treated NHBEs. (D) Cells were inoculated with HRV16 at MOI=5 and cultured at 33° C. for 48 hours. Luminex array was performed on conditioned media after removing cell debris. n=3 independent infections and treatment. Cytokines/chemokines that were induced at least 5 fold (p<0.05, Student's t test, lognormal values) are represented by square boxes. […] NHBEs were pretreated with MCC950 (5 μM) or Rupintrivir (10 nM) before HRV16 inoculation or Talabostat (2 μM) treatment. […] (G) Overview of apical HRV infection 3D human bronchial epithelial cultures. (H) Alcian blue (AB)/periodic acid-Schiff (PAS) staining of HRV16-infected (MOI=3) and Talabostat (2 μM)-treated 3D human bronchial epithelial cultures. (1) IL-18 level in apical or basal media 48 hours post-infection or Talabostat treatment. **P<0.01, ***P<0.001, ****P<0.0001 (Two-way ANOVA). n=3 independent infected/treated cultures. (J) Secretion of cleaved IL-1β and IL-18 and ASC oligomerization in HRV16-infected primary NHBEs. Cells were inoculated with HRV16 (MOI=5) or treated with Talabostat (2 μM) for 48 hours at 33° C.
(A) Endogenous NLRP1, ASC and caspase-1 are indispensable for HRV16-induced IL-18 secretion in NHBEs. Cas9-control, NLRP1, ASC and CASP1 KO NHBEs were infected with HRV16 as before. Conditioned media were harvested 48 hours post-infection. (B) NLRP1 is genetically required for HRV16-induced IL-18 cleavage and ASC oligomerization. Cas9 control, NLRP1 and ASC KO NHBEs were infected with HRV16 as before. Cleaved IL-18 are marked with arrows. (C) Mutating the NLRP1 cleavage site abrogates HRV16-triggered IL-18 secretion in NHBEs. NLRP1 KO NHBEs were rescued with lentiviral constructs expressing FLAG-tagged NLRP1^WT or NLRP1^Q130A, which carried silent mutations at the PAM sites. The rescued cells were infected with HRV16 or treated with Talabostat. Conditioned media was analyzed by IL-18 ELISA. **P<0.01, ***P<0.001, n=3 replicates from one of two independent infections. (D) Q130A abrogates NLRP1 cleavage, IL-18 maturation and ASC oligomerization in NHBEs. NLRP1 KO or NLRP1^WT- or NLRP1^Q130A-rescued cells were infected with HRV16 or treated with Talabostat. Cells were harvested 48 hours post infection. Arrow: NLRP1 cleavage product in lane 8 HRV16. *: Non-specific NLRP1 degradation product that occurs right below the a.a. 131-1213 cleavage fragment. See also FIG. 3E, 5E, 5D. (E) MLN4924 and Bortezomib blocks HRV16-induced IL-18 secretion. NHBEs were pre-treated with MLN4924 (1 μM) or Bortezomib (1 μM) before HRV16 infection or Talabostat treatment. IL-18 levels were measured with ELISA. ****, p<0.0001 (Two-way ANOVA), n=3 independent infections/treatment. (F) MLN4924 and Bortezomib blocks HRV16-induced IL-1β secretion. […] Lysates from HRV16-infected NHBEs in FIGS. 9E-F were analyzed by Western blot 48 hours post HRV16 inoculation.
The following antibodies were used in this study: c-Myc (Santa Cruz Biotechnology #sc-40), HA tag (Santa Cruz Biotechnology, #sc-805), GAPDH (Santa Cruz Biotechnology, #sc-47724), ASC (Adipogen, #AL-177), CASP1 (Santa Cruz Biotechnology, #sc-622), IL1B (R&D systems, #AF-201), FLAG (SigmaAldrich, #F3165), GFP (Abcam, #ab290), NLRP1 (R&D systems, #AF6788), IL18 (Abcam ab207324) and VP2 (QED Bioscience, #18758). HRV16-3Cpro was detected by rabbit serum, a kind gift from Dr. Ann Palmenberg and Dr. James Gern (University of Wisconsin). Cytokine and chemokine measurements were carried out with human IL-1B ELISA kit (BD, #557953), human IL-18 ELISA kit (MBL Bioscience, #7620) and Immune Monitoring 65-Plex Human ProcartaPlex™ Panel (ThermoFisher EPX650-10065-901). […]

In experiment [3] the test system is NLRP1 inflammasome in Talabostat-treated NHBEs. The experiment is described as follows: Talabostat-induced IL-1β and IL-18 secretion in NHBEs (ELISA). It is filed as cell-based, human. The conditions noted are these: Talabostat 2 μM, pre-treated: MLN4924 1 μM, MCC950 5 μM, Rupintrivir 10 nM. The procedure:
as §1
(A) Endogenous NLRP1, ASC and caspase-1 are indispensable for HRV16-induced IL-18 secretion in NHBEs. Cas9-control, NLRP1, ASC and CASP1 KO NHBEs were infected with HRV16 as before. Conditioned media were harvested 48 hours post-infection. (B) NLRP1 is genetically required for HRV16-induced IL-18 cleavage and ASC oligomerization. Cas9 control, NLRP1 and ASC KO NHBEs were infected with HRV16 as before. Cleaved IL-18 are marked with arrows. […] Conditioned media was analyzed by IL-18 ELISA. **P<0.01, ***P<0.001, n=3 replicates from one of two independent infections. […] IL-18 levels were measured with ELISA. ****, p<0.0001 (Two-way ANOVA), n=3 independent infections/treatment. […] Lysates from HRV16-infected NHBEs in FIGS. 9E-F were analyzed by Western blot 48 hours post HRV16 inoculation.
The following antibodies were used in this study: c-Myc (Santa Cruz Biotechnology #sc-40), HA tag (Santa Cruz Biotechnology, #sc-805), GAPDH (Santa Cruz Biotechnology, #sc-47724), ASC (Adipogen, #AL-177), CASP1 (Santa Cruz Biotechnology, #sc-622), IL1B (R&D systems, #AF-201), FLAG (SigmaAldrich, #F3165), GFP (Abcam, #ab290), NLRP1 (R&D systems, #AF6788), IL18 (Abcam ab207324) and VP2 (QED Bioscience, #18758). HRV16-3Cpro was detected by rabbit serum, a kind gift from Dr. Ann Palmenberg and Dr. James Gern (University of Wisconsin). […]
In general terms: An ELISA detects its analyte on a solid surface through an enzyme-linked reagent.

Experiment [4] concerns NLRP1 cleavage by HRV16 3Cpro. Nature of the experiment: NLRP1 cleavage in HRV16-infected HeLa-Ohio-NLRP1-HA cells. It is filed as cell-based, human. The settings on record: HRV16 MOI=1. The procedure:
(A) HRV16 infection causes NLRP1 cleavage in HeLa-Ohio-NLRP1-HA cells. MOI=1. (B) Q130A abrogates HRV16-induced NLRP1 cleavage and ASC-GFP oligomerization. HeLa-Ohio-ASC-GFP-NLRP1WT or NLRP1^Q130A cells were infected with HRV16 at MOI=1 at 33° C. Cell pellets were harvested 48 hours post infection. (C) The effect of HRV16 infection on ASC-GFP speck formation in HeLa-Ohio-ASC-GFP cells expressing wild-type NLRP1 or NLRP1^Q130A. ***P<0.001 (Two-way ANOVA). n=3 replicates from one of two independent infections, >100 cells per condition. (D) Representative images of ASC-GFP specks in HeLa-Ohio-ASC-GFP cells expressing wild-type NLRP1 or NLRP1^Q130A. Arrows: ASC-GFP specks. Note that in this cell line the ASC-GFP specks appear less compact, even in Talabostat-treated positive control cells. […]
The effect of live HRV infection in disease-relevant human epithelial cell types was then examined. In HeLa-Ohio cells overexpressing NLRP1-HA, robust HRV16 viral replication was achieved 16 hours post inoculation (MOI=1) as detected by the accumulation of the viral capsid protein VP2 (FIG. 8A, lanes 4, 5, 10 and 11). […] Using HeLa-Ohio cells that additionally expressed ASC-GFP, we next tested whether HRV16 infection could lead to NLRP1 inflammasome complex assembly. […]

“Also recorded” adds a separate entry of the source. Peptide text beside a SMILES is read from it. * marks the point of attachment. Cbz = O=C(OCc1ccccc1)*

Turning to `CC(C)C[C@@H](C=O)NC(=O)[C@H](CC(C)C)NC(=O)[C@H](CC(C)C)NC(=O)OCc1ccccc1` [MG132, benzyl N-[(2S)-4-methyl-1-[[(2S)-4-methyl-1-[[(2S)-4-methyl-1-oxopentan-2-yl]amino]-1-oxopentan-2-yl]amino]-1-oxopentan-2-yl]carbamate] (Cbz-Leu-Leu-Leu-aldehyde), in the experiment with human NLRP1 inflammasome, the “HRV14-3Cpro-induced ASC-GFP speck formation” value is “significantly blocked”. Also, in the experiment with NLRP1, the “stabilization of the post-cleavage NLRP1 fragment (a.a. 131-1213)” value is reported as “to similar degrees” and the “HRV14-3Cpro-induced NLRP1 self-oligomerization” value is given as “significantly blocked”. Further, in experiment [1], the “ASC oligomerization upon HRV14-3Cpro induction” value is listed as “completely abrogated” and the “mature IL-1β secretion upon HRV14-3Cpro induction” value is recorded as “completely abrogated”.
Regarding `CC(C)(O)c1coc(S(=O)(=O)NC(=O)Nc2c3c(cc4c2CCC4)CCC3)c1` [MCC950], in experiment [2], the “HRV16-induced IL-1β secretion” value is on record as “neither IL-1β nor IL-18 secretion was affected; also recorded: did not affect” and the “HRV16-induced IL-18 secretion” value is given as “neither IL-1β nor IL-18 secretion was affected”. Further, in experiment [3], the “Talabostat-induced IL-1β secretion” value was “neither IL-1β nor IL-18 secretion was affected” and the “Talabostat-induced IL-18 secretion” value is listed as “neither IL-1β nor IL-18 secretion was affected”.
As for `CC(C)C[C@H](NC(=O)[C@H](Cc1ccccc1)NC(=O)c1cnccn1)B(O)O` [Bortezomib, [(1R)-3-methyl-1-[[(2S)-3-phenyl-2-(pyrazine-2-carbonylamino)propanoyl]amino]butyl]boronic acid], the “HRV14-3Cpro-induced ASC-GFP speck formation” value with human NLRP1 inflammasome is listed as “blocked”. Further, the “stabilization of the post-cleavage NLRP1 fragment (a.a. 131-1213)” value in the experiment on NLRP1 is recorded as “to similar degrees”. Moreover, in experiment [1], the “ASC oligomerization upon HRV14-3Cpro induction” value was “completely blocked” and the “mature IL-1β secretion upon HRV14-3Cpro induction” value is listed as “completely blocked”. Further, in experiment [2], the “HRV16-induced IL-1β secretion” value is given as “blocks” and the “HRV16-induced IL-18 secretion” value was “blocks”. Further, in experiment [2] (listed as bortezomib), the “HRV16-induced IL-1β secretion” value is on record as “completely blocked” and the “HRV16-induced IL-18 secretion” value was “completely blocked”.
In the case of `N[C@@H](Cc1ccccc1)C(=O)O` [phenylalanine], the “HRV14-3Cpro-induced ASC-GFP speck formation” value in the experiment on human NLRP1 inflammasome is reported as “had no effect”. For the same molecule, the “HRV14-3Cpro-induced NLRP1 self-oligomerization” value in the experiment on NLRP1 is “had no effect”.
For the molecule `CCOC(=O)/C=C/[C@H](C[C@@H]1CCNC1=O)NC(=O)[C@@H](CC(=O)[C@@H](NC(=O)c1cc(C)on1)C(C)C)Cc1ccc(F)cc1` [Rupintrivir], in experiment [4], the NLRP1 cleavage entry was “completely abrogated”. In experiment [2], the “HRV16-induced IL-1β secretion” value was “completely abrogated” and the “HRV16-induced IL-18 secretion” value is reported as “completely abrogated”.

The values above are taken from US20230172933A1, “USE OF A COMPOUND OR COMPOSITION COMPRISING AN INHIBITOR OF NLRP1 INFLAMMASOME ACTIVATION FOR THE TREATMENT OF HUMAN AIRWAY INFLAMMATION” (Nanyang Technological University, priority 2020, published 2023).
